Measured values as given in patent US20020016370A1 (priority 1998, published 2002).
Where two headings read alike, the source gives them in different places.

Experiments:
[1] = tested on: Sprague-Dawley derived rats; experiment: Prevention of sensitized locomotor stimulant response to nicotine; assay type: in vivo, rat; settings: pretreatment 7 days before nicotine; test on day 9
Male Sprague-Dawley rats [2] = experiment: Mecamylamine blockade of nicotine-induced seizures; assay type: in vivo, rat
[3] = tested on: vagotomized, pithed and artificially respired rats; experiment: Pithed rat: cardiovascular responses to sympathetic nerve stimulation; assay type: in vivo; settings: for increases in heart rate (δ HR): 2.2 Hz, highest dose, versus saline; for stimulation-induced increases in MAP: stimulation at 0.8 and 2.2 Hz, i.v. bolus
[4] = tested on: vagotomized, pithed and artificially respired rats; experiment: Pithed rat: plasma catecholamine responses to sympathetic nerve stimulation; assay type: in vivo; settings: for change of plasma DA levels on sympathetic stimulation: from baseline
human α3β4 receptors = target: T1, human α3β4 receptors (Homo sapiens, UniProt P30926+P32297); experiment: Two-electrode voltage clamp, receptors expressed in Xenopus oocytes; assay type: cell-based
T1 construct: expressed in transfected cells; host or cells: Xenopus laevis oocytes injected with cRNA

human α4β2 receptors = target: T2, human α4β2 receptors (Homo sapiens, UniProt P17787+P43681); experiment: as above; assay type: cell-based
T2 construct: expressed in transfected cells; host or cells: Xenopus laevis oocytes injected with cRNA
T2 sequence (P43681 29-627 limits assumed): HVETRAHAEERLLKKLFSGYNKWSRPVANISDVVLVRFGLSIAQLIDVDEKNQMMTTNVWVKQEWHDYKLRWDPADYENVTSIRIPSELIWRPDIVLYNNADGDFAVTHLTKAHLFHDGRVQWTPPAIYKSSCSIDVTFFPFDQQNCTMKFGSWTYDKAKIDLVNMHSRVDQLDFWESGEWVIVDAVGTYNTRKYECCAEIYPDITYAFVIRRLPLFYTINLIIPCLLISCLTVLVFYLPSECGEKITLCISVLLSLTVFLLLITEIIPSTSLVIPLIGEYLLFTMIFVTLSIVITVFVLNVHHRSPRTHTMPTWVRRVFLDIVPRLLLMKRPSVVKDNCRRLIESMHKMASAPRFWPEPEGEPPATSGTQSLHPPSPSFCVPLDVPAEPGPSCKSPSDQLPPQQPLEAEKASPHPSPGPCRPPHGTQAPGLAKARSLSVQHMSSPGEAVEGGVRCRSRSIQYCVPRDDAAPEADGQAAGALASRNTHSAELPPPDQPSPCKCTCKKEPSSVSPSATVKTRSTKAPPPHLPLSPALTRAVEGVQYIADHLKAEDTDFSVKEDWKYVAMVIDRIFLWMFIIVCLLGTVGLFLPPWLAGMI
T2 sequence (P17787 26-502): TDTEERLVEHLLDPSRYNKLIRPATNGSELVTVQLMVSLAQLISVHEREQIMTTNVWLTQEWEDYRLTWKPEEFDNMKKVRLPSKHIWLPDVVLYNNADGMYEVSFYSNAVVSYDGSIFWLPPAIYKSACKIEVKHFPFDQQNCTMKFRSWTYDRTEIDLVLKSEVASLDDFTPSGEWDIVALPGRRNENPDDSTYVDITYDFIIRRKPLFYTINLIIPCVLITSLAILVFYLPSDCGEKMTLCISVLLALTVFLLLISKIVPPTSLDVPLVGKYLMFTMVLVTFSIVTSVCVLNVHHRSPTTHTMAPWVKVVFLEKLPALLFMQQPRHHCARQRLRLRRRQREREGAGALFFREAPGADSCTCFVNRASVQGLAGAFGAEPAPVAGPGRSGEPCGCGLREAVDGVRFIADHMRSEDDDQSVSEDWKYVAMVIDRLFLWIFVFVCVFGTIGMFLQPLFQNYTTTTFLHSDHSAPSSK

human α3β2 receptors = target: T3, human α3β2 receptors (Homo sapiens, UniProt P17787+P32297); experiment: as above; assay type: cell-based; settings: β2-containing receptors
T3 construct: expressed in transfected cells; host or cells: Xenopus laevis oocytes injected with cRNA

human α7 receptors = target: T4, human α7 receptors (Homo sapiens, UniProt P36544); experiment: as above; assay type: cell-based
T4 construct: expressed in transfected cells; host or cells: Xenopus laevis oocytes injected with cRNA
T4 sequence (P36544 23-502): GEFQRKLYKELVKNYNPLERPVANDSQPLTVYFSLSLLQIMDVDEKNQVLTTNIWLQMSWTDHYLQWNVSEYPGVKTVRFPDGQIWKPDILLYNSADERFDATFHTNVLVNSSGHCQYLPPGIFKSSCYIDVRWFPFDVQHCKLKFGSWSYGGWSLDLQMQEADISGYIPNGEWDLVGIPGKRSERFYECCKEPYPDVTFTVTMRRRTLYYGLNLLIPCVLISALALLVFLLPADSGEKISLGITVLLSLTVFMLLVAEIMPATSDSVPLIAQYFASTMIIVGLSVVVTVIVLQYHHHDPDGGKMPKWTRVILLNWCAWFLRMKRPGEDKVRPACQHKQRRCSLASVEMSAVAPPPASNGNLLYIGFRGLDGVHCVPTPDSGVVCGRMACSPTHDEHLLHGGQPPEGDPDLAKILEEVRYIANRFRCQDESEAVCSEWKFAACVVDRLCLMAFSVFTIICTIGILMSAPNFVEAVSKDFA

[5] = target: T5, α1β1δε mouse muscle receptors (Mus musculus, UniProt P02716+P04756+P09690+P20782); experiment: Selectivity test on muscle receptors in oocytes; assay type: cell-based
T5 sequence (P04756 21-457): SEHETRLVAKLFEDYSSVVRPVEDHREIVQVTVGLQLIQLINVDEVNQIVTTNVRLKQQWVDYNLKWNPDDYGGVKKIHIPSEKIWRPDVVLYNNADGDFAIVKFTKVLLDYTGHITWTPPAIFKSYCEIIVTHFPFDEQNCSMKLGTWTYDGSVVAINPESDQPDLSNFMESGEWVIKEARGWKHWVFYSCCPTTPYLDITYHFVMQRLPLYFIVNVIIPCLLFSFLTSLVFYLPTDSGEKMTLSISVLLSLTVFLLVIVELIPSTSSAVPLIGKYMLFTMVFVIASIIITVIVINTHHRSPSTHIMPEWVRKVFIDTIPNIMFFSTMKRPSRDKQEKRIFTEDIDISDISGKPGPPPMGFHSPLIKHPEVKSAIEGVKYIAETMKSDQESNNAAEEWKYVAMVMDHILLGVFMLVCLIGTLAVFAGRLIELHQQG
T5 sequence (P09690 24-501): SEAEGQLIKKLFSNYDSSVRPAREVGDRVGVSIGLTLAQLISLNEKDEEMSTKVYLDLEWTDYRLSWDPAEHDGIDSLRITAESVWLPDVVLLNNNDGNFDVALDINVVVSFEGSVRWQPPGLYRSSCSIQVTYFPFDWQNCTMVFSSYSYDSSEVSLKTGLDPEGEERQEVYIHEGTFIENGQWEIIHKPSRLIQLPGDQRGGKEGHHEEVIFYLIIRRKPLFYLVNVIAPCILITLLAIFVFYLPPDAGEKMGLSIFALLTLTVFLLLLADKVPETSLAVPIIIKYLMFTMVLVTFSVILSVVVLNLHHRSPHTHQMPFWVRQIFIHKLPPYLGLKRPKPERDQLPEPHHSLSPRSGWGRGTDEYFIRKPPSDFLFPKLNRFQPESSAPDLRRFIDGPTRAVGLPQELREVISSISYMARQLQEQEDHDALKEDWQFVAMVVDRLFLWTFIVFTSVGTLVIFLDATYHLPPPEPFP
T5 sequence (P02716 25-520): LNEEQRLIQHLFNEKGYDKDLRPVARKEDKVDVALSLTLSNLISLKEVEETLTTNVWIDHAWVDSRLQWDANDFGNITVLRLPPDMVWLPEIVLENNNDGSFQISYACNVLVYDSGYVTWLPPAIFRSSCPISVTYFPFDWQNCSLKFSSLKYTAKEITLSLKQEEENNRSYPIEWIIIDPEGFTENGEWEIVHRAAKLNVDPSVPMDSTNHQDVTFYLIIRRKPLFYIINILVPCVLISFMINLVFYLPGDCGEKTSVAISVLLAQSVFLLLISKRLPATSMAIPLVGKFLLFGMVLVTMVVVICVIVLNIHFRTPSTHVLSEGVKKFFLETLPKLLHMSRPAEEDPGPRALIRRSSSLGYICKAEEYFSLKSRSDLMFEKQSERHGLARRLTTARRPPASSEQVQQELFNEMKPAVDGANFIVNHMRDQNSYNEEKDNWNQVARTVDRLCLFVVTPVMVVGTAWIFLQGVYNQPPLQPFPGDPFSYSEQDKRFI
T5 sequence (P20782 21-493): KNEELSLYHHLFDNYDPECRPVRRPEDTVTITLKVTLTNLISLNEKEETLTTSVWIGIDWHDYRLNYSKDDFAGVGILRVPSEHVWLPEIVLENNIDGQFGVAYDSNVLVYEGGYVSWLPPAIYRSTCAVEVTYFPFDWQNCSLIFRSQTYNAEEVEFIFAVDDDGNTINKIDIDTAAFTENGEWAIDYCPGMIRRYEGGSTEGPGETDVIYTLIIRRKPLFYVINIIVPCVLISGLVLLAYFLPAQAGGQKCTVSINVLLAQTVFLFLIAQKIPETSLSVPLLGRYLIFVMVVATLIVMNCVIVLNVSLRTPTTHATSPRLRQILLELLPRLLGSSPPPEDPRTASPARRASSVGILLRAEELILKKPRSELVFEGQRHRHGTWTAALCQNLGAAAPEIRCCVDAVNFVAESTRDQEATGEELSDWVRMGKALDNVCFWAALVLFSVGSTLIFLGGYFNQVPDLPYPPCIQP
Protocol: For electrophysiology, oocyte recordings were made with an oocyte amplifier (e.g., Warner Instruments, Hamden, Conn., No. OC-725C) and recording chamber. […] A Mariotte flask filled with Ringer's solution was used to maintain a constant hydrostatic pressure for drug delivery and washes. Drugs were diluted in perfusion solution and loaded into a 2 ml loop at the terminus of the perfusion line. A bypass of the drug-loading loop allowed bath solution to flow continuously while the drug loop was loaded. The drug application was synchronized with data acquisition by using a 2-way electronic valve. […] Voltage electrodes were filled with 3M KCl and have resistances of 1-3MΩ. Oocytes with resting membrane potentials more positive than -30 mV were not used. […] All drug applications were separated by at least a 5 min wash period, longer if there is persisting drug effect. At the start of recording, all oocytes received two initial control applications of ACh. The second application of control ACh minimized the effects of rundown that occasionally occur after an initial ACh response. The second application of ACh also was used to normalize for the level of channel expression in each oocyte. To determine residual inhibitory effects, application of ACh with inhibitor or inhibitor alone was followed by another application of ACh alone and compared to the pre-application control ACh response. […]

[6] = target: hDAT (dopamine transporter) (Homo sapiens, UniProt Q01959); experiment: [125]RTI-55 binding, HEK293 cell membranes; settings: HEK-hDAT membranes
[7] = target: hSERT (serotonin transporter) (Homo sapiens, UniProt P31645); experiment: [125]RTI-55 binding, HEK293 cell membranes; settings: HEK-hSERT membranes
[8] = target: hNET (norepinephrine transporter) (Homo sapiens, UniProt P23975); experiment: [125]RTI-55 binding, HEK293 cell membranes; settings: HEK-hNET membranes
male Swiss-Webster mice [9] = experiment: Locomotor depression test; assay type: in vivo, mouse
male Swiss-Webster mice [10] = experiment: Cocaine interaction study (locomotor activity); assay type: in vivo, mouse; settings: 10 mg/kg ip plus cocaine 20 mg/kg, at 30 minutes
TS patients = settings: Tourette's syndrome; cited from earlier work
Male Sprague-Dawley rats [11] = experiment: Effects of mecamylamine alone at high dose (seizures, spontaneous locomotor activity); assay type: in vivo, rat; settings: 10 mg/kg s.c.
nicotine receptors = experiment: Oocyte recovery time course and agonist tests, receptor subtype not specified; assay type: cell-based
[12] = target: T6, NMDA receptor subunits NR1 and NR2b (Homo sapiens, UniProt Q05586+Q13224); experiment: Oocytes coexpressing NMDA receptor subunits; assay type: cell-based; settings: 100 μM
T6 construct: expressed in transfected cells; host or cells: Xenopus oocytes
T6 sequence (Q13224 27-1484, other chains not shown): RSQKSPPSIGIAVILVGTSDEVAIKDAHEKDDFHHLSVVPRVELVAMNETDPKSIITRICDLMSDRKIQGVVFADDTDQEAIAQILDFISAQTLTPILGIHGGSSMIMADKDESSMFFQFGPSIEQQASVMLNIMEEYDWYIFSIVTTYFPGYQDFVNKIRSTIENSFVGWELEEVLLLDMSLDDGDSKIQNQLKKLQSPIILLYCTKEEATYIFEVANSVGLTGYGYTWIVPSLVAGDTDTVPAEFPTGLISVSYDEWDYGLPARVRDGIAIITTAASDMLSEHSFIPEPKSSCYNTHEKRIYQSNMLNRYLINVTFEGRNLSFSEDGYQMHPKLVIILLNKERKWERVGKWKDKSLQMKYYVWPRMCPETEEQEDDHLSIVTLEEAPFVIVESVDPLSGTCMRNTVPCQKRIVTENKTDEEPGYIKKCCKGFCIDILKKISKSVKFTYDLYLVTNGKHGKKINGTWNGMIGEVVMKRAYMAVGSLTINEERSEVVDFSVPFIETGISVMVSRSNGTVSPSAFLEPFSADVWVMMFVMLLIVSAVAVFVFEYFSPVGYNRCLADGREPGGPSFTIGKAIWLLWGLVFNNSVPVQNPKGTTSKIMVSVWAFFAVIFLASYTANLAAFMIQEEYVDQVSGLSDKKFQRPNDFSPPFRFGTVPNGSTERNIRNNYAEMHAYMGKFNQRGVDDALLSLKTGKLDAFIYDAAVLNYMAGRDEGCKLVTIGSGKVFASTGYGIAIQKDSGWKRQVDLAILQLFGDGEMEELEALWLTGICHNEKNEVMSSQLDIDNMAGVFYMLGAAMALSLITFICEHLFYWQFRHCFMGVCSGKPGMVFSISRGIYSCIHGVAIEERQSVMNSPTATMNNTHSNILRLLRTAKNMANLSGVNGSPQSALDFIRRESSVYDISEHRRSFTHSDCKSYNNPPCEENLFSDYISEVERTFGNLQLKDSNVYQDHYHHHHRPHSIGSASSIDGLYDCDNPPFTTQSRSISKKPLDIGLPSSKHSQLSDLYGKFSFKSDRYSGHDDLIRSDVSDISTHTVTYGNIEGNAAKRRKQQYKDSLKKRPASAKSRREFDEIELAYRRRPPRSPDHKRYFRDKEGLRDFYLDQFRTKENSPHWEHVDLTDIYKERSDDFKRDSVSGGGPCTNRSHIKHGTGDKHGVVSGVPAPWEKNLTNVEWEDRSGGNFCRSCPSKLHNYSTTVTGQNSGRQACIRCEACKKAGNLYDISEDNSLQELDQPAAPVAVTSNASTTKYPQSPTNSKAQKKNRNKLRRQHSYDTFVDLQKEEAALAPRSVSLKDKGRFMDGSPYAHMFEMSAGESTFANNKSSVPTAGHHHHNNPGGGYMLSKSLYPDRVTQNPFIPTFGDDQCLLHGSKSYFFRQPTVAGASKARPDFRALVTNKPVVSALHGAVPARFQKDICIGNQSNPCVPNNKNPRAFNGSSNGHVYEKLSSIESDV
Text: NR1 is ubiquitous in the brain and produces robust functional responses when coexpressed with the NR2b subunit and activated by glutamate and the coagonist glycine. NR2b in vivo is selectively present in the forebrain with high levels of expression in the cerebral cortex and hippocampus, as well as the septum, caudate putamen and olfactory bulb, making the combination of NR2b and NR1 relevant for both cognitive and motor functions in the CNS.

[13] = target: T5, α1β1δε mouse muscle receptors; settings: stated as a finding in the discussion; cited from earlier work
rats = settings: mecamylamine 0.1-1 mg/day, ip; cited from earlier work
mice = settings: cited from earlier work

With `CN[C@]1(C)[C@H]2CC[C@H](C2)C1(C)C` [exo-R-mecamylamine] the “effectiveness compared between isomers, particularly center distance and vertical activity” value [1] was “generally more effective at lower doses”, the “duration and severity of seizure versus saline (FIG. 6C)” value (Male Sprague-Dawley rats [2]; 0.1 mg/kg s.c.) was “did not differ from their saline comparison group” and the “increases in heart rate (δ HR)” value [3] was “significantly lowered the increases in heart rate”. For the same compound, the “stimulation-induced increases in MAP” value [3] was “completely abolished”, the “stimulation-induced increases in plasma NE levels versus saline” value ([4]; 2.2 Hz) was “significantly less” and the “change of plasma DA levels on sympathetic stimulation” value ([4]; 2.2 Hz) was “significant increases in plasma DA levels”. The “subsequent control response to ACh 5 min after exposure (residual inhibition)” value (human α3β4 receptors) was “marked decrease”, the “fast phase of recovery, average duration” value (human α3β4 receptors; no further recovery afterwards) was 12 min and the “voltage dependence of inhibition / off rate” value (human α4β2 receptors; 5 μM, −40 mV or 90 mV) was “significant voltage effects”. For the same compound, the “residual inhibition, compared across receptors” value (human α4β2 receptors; β2-containing receptors) was “greatest”, the “residual inhibition, compared across receptors” value (human α3β2 receptors) was “greatest” and the “potency of inhibition, comparing the IC50 values across receptors” value (human α7 receptors) was “least potent”. The “residual inhibition, compared across receptors” value (human α7 receptors) was “least”, the “effect on muscle receptors” value [5] was “very little effect” and the “inhibition of muscle receptors after a 5-min wash” value [5] was “fully reversed”. For the same compound, the “affinity compared to cocaine” value [6] was “lower than the affinity of cocaine”, the “affinity compared to cocaine” value [7] was “lower than the affinity of cocaine” and the “affinity compared to cocaine” value [8] was “lower than the affinity of cocaine”. For the same compound, the stimulant effects (male Swiss-Webster mice [9]; 10 mg/kg ip, last 30 minutes of testing) was “evident”, the “dose producing one half of the maximal depressant activity” value (male Swiss-Webster mice [9]; ip, 20 min before testing, maximal depression is 0 counts in 30 minutes) was 9.3 mg/kg and the “locomotion versus cocaine alone” value (male Swiss-Webster mice [10]) was “significantly lower”.

For `O=C(CCCN1CCC(O)(c2ccc(Cl)cc2)CC1)c1ccc(F)cc1` [haloperidol], the “cases in which effective” value (TS patients) is given as “about 70%”.

In the case of `CN[C@@]1(C)[C@@H]2CC[C@@H](C2)C1(C)C` [exo-S-mecamylamine], the “duration and severity of seizure versus saline (FIG. 6C)” value (Male Sprague-Dawley rats [2]; 0.1 mg/kg s.c.) is reported as “significantly different from their saline comparison groups”, the “seizure latency versus saline comparison groups” value (Male Sprague-Dawley rats [2]; 0.1 mg/kg s.c.) is reported as “significantly longer seizure latency” and the “number of rats with nicotine-seizures compared to exo-R-mecamylamine” value (Male Sprague-Dawley rats [2]; lowest dose 0.1 mg/kg) is reported as “fewer rats had nicotine-seizures”. For the same compound, the “locomotor depressant effects compared to exo-R-mecamylamine” value (Male Sprague-Dawley rats [11]) was “significantly less locomotor depressant effects”, the “increases in heart rate (δ HR)” value [3] was “significantly lowered the increases in heart rate” and the “stimulation-induced increases in MAP” value [3] was “completely abolished”. The “stimulation-induced increases in plasma NE levels versus saline” value ([4]; 2.2 Hz) was “significantly decreased stimulation-evoked plasma NE increases”, the “stimulation-induced plasma EPI responses” value ([4]; 2.2 Hz) was “significant decrease” and the “change of plasma DA levels on sympathetic stimulation” value ([4]; 2.2 Hz) was “not”. For the same compound, the “overall effectiveness on plasma CA and sympathetically-mediated cardiovascular responses” value ([4]; among the three forms) was “the most effective in reducing plasma CA”, the initial inhibition (nicotine receptors; co-application of 10 μM and ACh at the control concentration) was “greater than 50%” and the “off-loading from some receptors compared to exo-R-mecamylamine” value (nicotine receptors; recovery time course) was “more slowly”. For the same compound, the “inhibition of response to 10 μM glutamate+10 μM glycine” value [12] was “transient inhibition”, the “reversibility after a 5-min wash” value [12] was “reversible” and the “inhibitory effect at nAChR muscle receptors compared to exo-R-mecamylamine” value [13] was “less inhibitory effect”.

In the case of `Clc1cccc(Cl)c1N=C1NCCN1` [clonidine], the “success rate for motor and vocal tics” value (TS patients) is given as 40%.

In the case of `C[N+](C)(C)CCCCCC[N+](C)(C)C` [hexamethonium], the “block of nicotine-induced locomotor hyperactivity and tail tremor” value (rats) is given as “not”.

For `CO[C@H]1CC=C2CCN3CCC4=C(CC(=O)OC4)[C@]23C1` [dihydro-beta-erythroidine], the “effect against psychostimulant-induced stereotypy in naive animals” value (mice; systemic administration) is given as “ineffective”.

In the case of `CN1[C@@H]2CC[C@H]1C[C@@H](OC(=O)C(CO)c1ccccc1)C2` (some centres unmarked) [atropine], the “effect against psychostimulant-induced stereotypy in naive animals” value (mice; mouse, in vivo) is given as “ineffective”.
